Results on five compounds are retold here after patent US20110003757A1, “PHARMACEUTICAL COMPOSITIONS FOR TREATING FATTY LIVER DISEASE” (ASTELLAS PHARMA INC., priority 2008, published 2011).

For one experiment, the system named is SGLT. The following applies: disclosed in Patent Documents 3, 5 and 6; cited from earlier work.
The subject of a further experiment is KK-A^y mice. Nature of the experiment: Liver triglyceride content in nonalcoholic simple fatty liver model (KK-A^y mice). The note with it: for Effect on liver triglyceride content (in words): versus vehicle; for Liver triglyceride content: mean±standard error. The class given is in vivo. How it is done:
KK-A^y mice (female, purchased from CLEA Japan, Inc.) were used. The mice were fed with CMF (for special breeding, purchased from Oriental Yeast Co., Ltd., Japan) ad libitum. At 14 weeks of age, they were measured for their body weight, blood glucose levels, plasma insulin levels, plasma triglyceride levels and plasma alanine aminotransferase (ALT), and then divided into two groups such that these items were equal between the groups (8 animals per group). The first group was administered with vehicle (0.5% methylcellulose) at a dose of 10 mL/kg, and the second group was administered with a choline salt of (1S)-1,5-anhydro-1-[5-(azulen-2-ylmethyl)-2-hydroxyphenyl]-D-glucitol (i.e., a choline salt of Compound A) at a dose of 3 mg/kg (calculated as Compound A), each being administered orally once a day for 2 weeks. On the day following the final administration, the liver was collected from each mouse under ether anesthesia, frozen in liquid nitrogen and then stored at −80° C.
Liver triglyceride content was measured in the following manner.
1. A portion (50 to 150 mg) of each liver frozen and stored at −80° C. was taken to an Assist tube. 2. After addition of methanol (2 mL), the liver sample was homogenized with a POLYTRON (KINEMATICA). 3. To the homogenate, chloroform (4 mL) was added and vigorously stirred at room temperature for 10 minutes. 4. Milli-Q water (1 mL) was further added and vigorously stirred. 5. The sample was centrifuged in a low speed centrifuge (Hitachi, Ltd., Japan) (2,500 rpm, 5 min, room temperature). 6. A portion of the lower layer (total volume: 4.5 mL) was taken to an Eppendorf tube and evaporated in a centrifugal evaporator (Sakuma Seisakusho, Japan) to remove the solvent. 7. The residue in the Eppendorf tube was dissolved again by addition of ethanol (10 μL). 8. Triglyceride E-Test Wako reagent (1 mL, Wako Pure Chemical Industries, Ltd., Japan) was added to the resulting solution, and triglycerides were quantified. 9. From the result obtained above, the triglyceride content per g of liver was calculated for each sample. The data were expressed as mean±standard error.
(§1) The test was conducted in the same manner as shown in Example 1, except that this test was conducted with 3 groups of 8 animals, and the first group was administered with vehicle (0.5% methylcellulose) at a dose of 10 mL/kg, the second group was administered with a co-crystal (1:1 molar ratio) of (1S)-1,5-anhydro-1-[3-(1-benzothiophen-2-ylmethyl)-4-fluorophenyl]-D-glucitol (Compound B) and L-proline at a dose of 3 mg/kg (calculated as Compound B), and the third group was administered with a control compound, 2-(4-methoxybenzyl)phenyl 6-O-ethoxycarbonyl-β-D-glucopyranoside (hereinafter also referred to as Compound X, whose structural formula is shown below) disclosed in Patent Document 1 (supra) at a dose of 36 mg/kg, each being administered orally once a day for 2 weeks. Then, the liver triglyceride content was measured for each group in the same manner as shown in Example 1.
as §1, with “Compound B” for “(1S)-1,5-anhydro-1-[3-(1-benzothiophen-2-ylmethyl)-4-fluorophenyl]-D-glucitol (Compound B)”, “T-1095 disclosed in Patent Document 2 (supra), i.e., 3-(benzo[b]furan-5-yl)-2′,6′-dihydroxy-4′-methylpropiophenone 2′-O-(6-O-methoxycarbonyl)-β-D-glucopyranoside” for “2-(4-methoxybenzyl)phenyl 6-O-ethoxycarbonyl-β-D-glucopyranoside”, “Y,” for “X,”, “below)” for “below) disclosed in Patent Document 1 (supra)”, “34” for “36”
The test was conducted in the same manner as shown in Example 1. […]

The test system of a further experiment is MCD diet-fed Wistar rats. Nature of the experiment: Nonalcoholic steatohepatitis model, MCD diet-fed rats: liver histopathology scores. It is filed as in vivo. The note with it: co-crystal of Compound B and L-proline 3 mg/kg orally once a day for 16 weeks, five-point scale 0-4, versus MCD diet vehicle group. How it is done:
This test was conducted by reference to a document (J. Hepatol., 2003, 39, 756-764). Wistar rats (male, purchased from Charles River Japan, Inc.) were used. The rats were fed with MCD diet (methionine/choline-deficient diet, MP Biochemicals) or normal control diet (methionine/choline control diet, MP Biochemicals) ad libitum. At 9 weeks of age, they were measured for their body weight and divided into groups of equal body weight, followed by initiation of the test (10 animals per group). The first group was fed with normal control diet and administered with vehicle (0.5% methylcellulose) at a dose of 5 mL/kg. The second and third groups were fed with MCD diet, and the second group was administered with vehicle (0.5% methylcellulose) at a dose of 5 mL/kg, while the third group was administered with a co-crystal (1:1 molar ratio) of Compound B and L-proline at a dose of 3 mg/kg (calculated as Compound B). Each drug was administered orally once a day for 16 weeks. On the day following the final administration, the liver was collected from each rat under ether anesthesia and a portion of the liver was fixed in 10% neutral buffered formalin. […]

The subject of experiment [1] is CDAA diet-fed Wistar rats. Nature of the experiment: Nonalcoholic steatohepatitis model, CDAA diet-fed rats: hepatic fibrosis score. The note with it: Example 5, FIG. 3; co-crystal of Compound B and L-proline 3 mg/kg orally once a day for 5 weeks; five-point scale 0-4; versus CDAA diet vehicle group. It is filed as in vivo. Here is the method: This test was conducted by reference to a document (Biochem Biophys Res Commun., 2004, 315(1), 187-195). Wistar rats (male, purchased from Charles River Japan, Inc.) were used. The rats were fed with CDAA diet (choline-deficient L-amino acid-defined diet (Choline Deficient and Iron Supplemented L-Amino Acid Defined Rat Diet, Dyets)) or normal control diet (Choline and Iron Supplemented L-Amino Acid Defined Rat Diet, Dyets) ad libitum. At 9 weeks of age, they were measured for their body weight and divided into groups of equal body weight, followed by initiation of the test (10 animals per group). […] The second and third groups were fed with CDAA diet, and the second group was administered with vehicle (0.5% methylcellulose) at a dose of 5 mL/kg, while the third group was administered with a co-crystal (1:1 molar ratio) of Compound B and L-proline at a dose of 3 mg/kg (calculated as Compound B). […] After a portion of the liver was fixed in 10% neutral buffered formalin, paraffin sections (3 μm) were prepared in a standard manner and subjected to van Gieson staining Fibrosis was evaluated by reference to the Brunt classification (Clinical Practice Guidelines for NASH/NAFLD, edited by the Japan Society of Hepatology, 2006), based on a five-point scale of 0, 1, 2, 3 and 4 (see Table 4).

For the next experiment, the system named is db/db mice. The note with it: disclosed in Patent Document 2; cited from earlier work.

For `OC[C@H]1O[C@@H](c2cc(Cc3cc4cccccc-4c3)ccc2O)[C@H](O)[C@@H](O)[C@@H]1O` [Compound A, (1S)-1,5-anhydro-1-[5-(azulen-2-ylmethyl)-2-hydroxyphenyl]-D-glucitol], in the experiment on SGLT, the SGLT inhibitory activity entry was “shows SGLT inhibitory activity”. Besides, the “Effect on liver triglyceride content (in words)” value (from here on “Effect”) in the experiment on KK-A^y mice (Example 1, 3 mg/kg orally once a day for 2 weeks) is “significantly improved”. Besides, the Liver triglyceride content with KK-A^y mice (Example 1, choline salt of Compound A, 3 mg/kg (calculated as Compound A) orally once a day for 2 weeks, vehicle 60.0 ± 8.4) was 30.7 ± 5.4 mg/g liver.

In the case of `OC[C@H]1O[C@@H](c2ccc(F)c(Cc3cc4ccccc4s3)c2)[C@H](O)[C@@H](O)[C@@H]1O` [Compound B, (1S)-1,5-anhydro-1-[3-(1-benzothiophen-2-ylmethyl)-4-fluorophenyl]-D-glucitol], the “Pathological score of inflammatory cell infiltration” value in the experiment with MCD diet-fed Wistar rats (Example 4, FIG. 1) is listed as “significantly improved”. Moreover, the “Pathological score of hepatic fibrosis” value was “significantly improved” in the experiment with MCD diet-fed Wistar rats (Example 4, FIG. 2) and “significantly improved” in experiment [1]. The SGLT inhibitory activity result in the experiment on SGLT was “shows SGLT inhibitory activity”. Also, the “Effect” value is “significantly improved” with KK-A^y mice (Example 2, 3 mg/kg orally once a day for 2 weeks) and “significantly improved” in the experiment on KK-A^y mice (Example 3, 3 mg/kg orally once a day for 2 weeks). Moreover, the Liver triglyceride content with KK-A^y mice (Example 2, co-crystal of Compound B and L-proline, 3 mg/kg (calculated as Compound B) orally once a day for 2 weeks, vehicle 52.8 ± 4.9) was 34.8 ± 1.9 mg/g liver; in the experiment on KK-A^y mice (Example 3, co-crystal of Compound B and L-proline, 3 mg/kg (calculated as Compound B) orally once a day for 2 weeks, vehicle 59.7 ± 6.2), 41.2 ± 5.1 mg/g liver.

For `CCOc1ccc(Cc2cc([C@@H]3O[C@H](CO)[C@@H](O)[C@H](O)[C@H]3O)ccc2Cl)cc1` [Compound C, (1S)-1,5-anhydro-1-[4-chloro-3-(4-ethoxybenzyl)phenyl]-D-glucitol], the “Effect” value with KK-A^y mice (Example 6, 3 mg/kg orally once a day for 2 weeks) was “significantly improved”. This compound also came in with a Liver triglyceride content with KK-A^y mice (Example 6, 3 mg/kg orally once a day for 2 weeks, vehicle 60.2 ± 7.1) of 28.6 ± 3.9 mg/g liver.

As for `CCOC(=O)OC[C@H]1O[C@@H](Oc2ccccc2Cc2ccc(OC)cc2)[C@H](O)[C@@H](O)[C@@H]1O` [Compound X, 2-(4-methoxybenzyl)phenyl 6-O-ethoxycarbonyl-β-D-glucopyranoside, reference compound], the Liver triglyceride content with KK-A^y mice (Example 2, 3 mg/kg orally once a day for 2 weeks, vehicle 52.8 ± 4.9) is 57.9 ± 4.5 mg/g liver. The “Effect” value in the experiment with KK-A^y mice (Example 2, 36 mg/kg orally once a day for 2 weeks) is given as “no significant effect”; with KK-A^y mice (Example 3, 34 mg/kg orally once a day for 2 weeks) it was “no significant effect”.

On to `COC(=O)OC[C@H]1O[C@@H](Oc2cc(C)cc(O)c2C(=O)CCc2ccc3occc3c2)[C@H](O)[C@@H](O)[C@@H]1O` [Compound Y, 3-(benzo[b]furan-5-yl)-2′,6′-dihydroxy-4′-methylpropiophenone 2′-O-(6-O-methoxycarbonyl)-β-D-glucopyranoside, reference compound], for which the Liver triglyceride content in the experiment with KK-A^y mice (Example 3, 34 mg/kg orally once a day for 2 weeks, vehicle 59.7 ± 6.2) was determined as 59.7 ± 8.9 mg/g liver. For the same compound, the Blood triglyceride levels result with db/db mice was “reduced blood triglyceride levels”.
